The target in assay [1] is T1, human sputum elastase (HSE) (Homo sapiens, UniProt P08246).
T1 construct: HSE was obtained from Elastin Products Company Inc., Mo., U.S.A; purchased Elastin Products Company Inc; host or cells: human sputum (from the enzyme's name)
T1 sequence (P08246 30-267): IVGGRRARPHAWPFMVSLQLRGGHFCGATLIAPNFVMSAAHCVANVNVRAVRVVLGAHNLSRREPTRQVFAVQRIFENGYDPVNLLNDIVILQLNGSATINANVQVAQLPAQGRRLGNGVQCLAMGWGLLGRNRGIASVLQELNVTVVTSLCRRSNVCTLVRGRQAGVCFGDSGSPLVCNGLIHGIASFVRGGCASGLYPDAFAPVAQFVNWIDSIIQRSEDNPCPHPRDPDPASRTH
Briefly: Protease inhibition assay (in vitro), human sputum elastase. The format is biochemical. To be noted: substrate methoxysuccinyl-(Ala)2-Pro-Val-p-nitroanilide, 30 min, room temperature, pH 7.5. Here is the method:
(§1) A buffer used throughout the assay was 0.1M HEPES (4-(2-hydroxyethyl)-1-piperazineethanesulfonic acid) containing 0.5M NaCl, pH 7.5. Twenty-five microliters of 2 mM methoxysuccinyl-(Ala)2 -Pro-Val-p-nitroanilide (100 mM of dimethyl sulfoxide solution were diluted in the buffer) and 50 μl of sample (10 μl of sample in organic solvent was diluted 5-fold in the buffer) were mixed in wells of 96 well-microliter plate. An absorbance of the mixture in wavelength at 415 nm was measured by a microplate reader (Corona Electric Co., Ibaraki, Japan). After the measurement, 25 μl of 6 μg/ml human sputum elastase (HSE) was added and the mixture was allowed to stand for 30 minutes at room temperature. Then, the absorbance at 415 nm was measured. Percent inhibition by drug was determined by 100×(1-"r" inhibitor present/"r" inhibitor absent), where "r" is absorbance after 30 minutes incubation minus absorbance before enzyme addition. Effect of inhibitors against porcine pancreas elastase (Type IV, 5 μg/ml final) was assayed similarly using N-succinyl-(Ala)3 -p-nitroanilide. HSE was obtained from Elastin Products Company Inc., Mo., U.S.A. All other substrates and protease were purchased from Sigma Chemicals Co.

In assay [2] the target is T2, porcine pancreas elastase (Type IV) (Sus scrofa, UniProt P00772).
T2 construct: purchased Sigma Chemicals Co; host or cells: porcine pancreas (from the enzyme's name)
Briefly: Protease inhibition assay (in vitro), porcine pancreas elastase. The assay is classed as biochemical. The note with it: substrate N-succinyl-(Ala)3-p-nitroanilide, enzyme 5 μg/ml final. Here is the method:
as §1

In assay [3] the test system is human sputum elastase-induced lung hemorrhage in hamsters. Briefly: Elastase-induced pulmonary damage (lung hemorrhage) in hamsters. The assay is classed as in vivo, hamster. To be noted: 5 min predose; for Hemorrhage (OD541 nm): BAL hemoglobin 3 h after elastase. How it is done:
Hamsters under pentobarbital anesthesia were used. Saline or saline-containing human sputum elastase was instilled intratracheally via a small incision in the ventral neck region using 1-ml syringe with a 27-gauge needle. After 3 hours, animals were sacrificed by CO2 asphyxiation, each animal's trachea was reexposed. The lungs were then laveged using a 2.5-ml aliquot of saline and then withdrawing the saline, yielding a final volume of approximately 1.5 ml bronchoalveolar lavage (BAC) fluid from each animal.
The cells of BAL fluid were collected by centrifugation and were then diluted with distilled water to disrupt, and the hemoglobin contents determined spectrophotometrically at 541 nm.
Test drugs were dissolved in saline or methyl cellulose, and instilled intratracheally in the same manner as used to instill elastase, at 5 minutes before instillation of elastase.

Setting [4] is: read-out: IC50 Porcine pancreas elastase.

Here are results for 16 compounds from US5296591A, “Trifluoromethylketone derivatives, processes for preparation thereof and use thereof” (Fujisawa Pharmaceutical Co., Ltd., priority 1990, dated 1994).

The IC50 is the concentration at which inhibition is half-maximal.

Where two headings read alike, the source gives them in different places.

T2 sequence (P00772 27-266): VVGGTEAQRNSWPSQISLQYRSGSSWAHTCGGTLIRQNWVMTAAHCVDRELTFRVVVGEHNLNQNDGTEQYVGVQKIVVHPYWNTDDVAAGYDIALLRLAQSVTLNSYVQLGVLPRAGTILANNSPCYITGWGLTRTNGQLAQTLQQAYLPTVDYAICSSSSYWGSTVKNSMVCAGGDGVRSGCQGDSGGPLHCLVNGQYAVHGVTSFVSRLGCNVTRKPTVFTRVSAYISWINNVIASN

In the case of “3(RS)-[[4-(Carboxymethylaminocarbonyl)phenylaminocarbonyl]-L-valyl-L-prolyl] amino-1,1,1-trifluoro-2-oxo-4-methylpentane [Example 23]”, the IC50 stood at 810 nM in assay [1] and 2400 nM in assay [2] (setting [4]). Further, the figures for the “% inhibition of elastase-induced lung hemorrhage” value in assay [3] (1 μg/site intratracheal), in assay [3] (10 μg/site intratracheal) and in assay [3] (100 μg/site intratracheal) were 16.0%, 75.6% and 102.1%, respectively. For the same compound, the results for the “Hemorrhage (OD541 nm)” value in assay [3] (1 μg/site intratracheal), in assay [3] (10 μg/site intratracheal) and in assay [3] (100 μg/site intratracheal) were 9.435 ± 0.941 OD541 nm, 3.412 ± 1.31 OD541 nm and 0.7258 ± 0.303 OD541 nm, respectively. For the same compound, in assay [3] (intratracheal), the “ED50 elastase-induced lung hemorrhage” value is recorded as 3.2 μg/site.

In the case of `CC(C)C(NC(=O)[C@@H]1CCCN1C(=O)[C@@H](NC(=O)c1ccc(C(=O)NCC(=O)OCc2ccccc2)cc1)C(C)C)C(=O)C(F)(F)F` (mixture of isomers) [Example 1, 3(RS)-[[4-[(benzyloxycarbonyl)methylaminocarbonyl]-phenylcarbonyl]-L-valyl-L-prolyl]amino-1,1,1-trifluoro-4-methyl-2-oxopentane], the 50% inhibitory concentration (IC50) in assay [1] came to 450 nM; in assay [2] (setting [4]) it was 4400 nM.

Regarding `CC(C)C(NC(=O)[C@@H]1CCCN1C(=O)[C@@H](NC(=O)c1ccc(C(=O)NCc2ccc(Cl)cc2)cc1)C(C)C)C(=O)C(F)(F)F` (mixture of isomers) [Example 5, 3(RS)-[[4-[(4-Chlorobenzyl)aminocarbonyl]-phenylcarbonyl]-L-valyl-L-prolyl]amino-1,1,1-trifluoro-4-methyl-2-oxopentane], the IC50 in assay [1] worked out at 300 nM; in assay [2] (setting [4]), 5100 nM.

As to `CC(C)C(NC(=O)[C@@H]1CCCN1C(=O)[C@@H](NC(=O)c1ccc(C(=O)NCc2ccc([N+](=O)[O-])cc2)cc1)C(C)C)C(=O)C(F)(F)F` (mixture of isomers) [Example 6, 3(RS)-[[4-[(4-Nitrobenzyl)aminocarbonyl]phenylcarbonyl]-L-valyl-L-prolyl]amino-1,1,1-trifluoro-4-methyl-2-oxopentane], the 50% inhibitory concentration (IC50) stood at 430 nM in assay [1] and 6900 nM in assay [2] (setting [4]).

Take `CC(C)C(NC(=O)[C@@H]1CCCN1C(=O)[C@@H](NC(=O)c1ccc(C(=O)Nc2ccc(Cl)cc2)cc1)C(C)C)C(=O)C(F)(F)F` (mixture of isomers) [Example 7, 3(RS)-[[4-[(4-Chlorophenyl)aminocarbonyl]phenylcarbonyl]-L-valyl-L-prolyl]amino-1,1,1-trifluoro-4-methyl-2-oxopentane]: the IC50 in assay [1] turned out to be 320 nM; in assay [2] (setting [4]), 3800 nM.

As for `CC(C)C(NC(=O)[C@@H]1CCCN1C(=O)[C@@H](NC(=O)c1ccc(C(=O)N[C@@H](CCC(=O)OCc2ccccc2)C(=O)OCc2ccccc2)cc1)C(C)C)C(=O)C(F)(F)F` (mixture of isomers) [Example 10, 3(RS)-[[4-[[1(S),3-bis(Benzyloxycarbonyl)propyl]aminocarbonyl]phenylcarbonyl]-L-valyl-L-prolyl]amino-1,1,1-trifluoro-4-methyl-2-oxopentane], the IC50 came to 8000 nM in assay [1] and 310000 nM in assay [2] (setting [4]).

For `CC(C)C(NC(=O)[C@@H]1CCCN1C(=O)[C@@H](NC(=O)c1ccc(C(=O)N[C@@H](CCC(=O)O)C(=O)O)cc1)C(C)C)C(=O)C(F)(F)F` (mixture of isomers) [Example 17, 3(RS)-[[4-[(1(S),3-Dicarboxypropyl)aminocarbonyl]-phenylcarbonyl]-L-valyl-L-prolyl]amino-1,1,1-trifluoro-4-methyl-2-oxopentane], the results for the half-inhibitory concentration (IC50) in assay [1] and in assay [2] (setting [4]) were 1100 nM and 3400 nM, respectively.

With `CC(C)C(NC(=O)[C@@H]1CCCN1C(=O)[C@@H](NC(=O)c1ccc(C(=O)NCc2ccc(N)cc2)cc1)C(C)C)C(=O)C(F)(F)F` (mixture of isomers) [Example 18, 3(RS)-[[4-[(4-aminobenzyl)aminocarbonyl]phenylcarbonyl]-L-valyl-L-prolyl]amino-1,1,1-trifluoro-4-methyl-2-oxopentane], the 50% inhibitory concentration (IC50) is 610 nM in assay [1] and 3800 nM in assay [2] (setting [4]).

As to `CC(C)C(NC(=O)[C@@H]1CCCN1C(=O)[C@@H](NC(=O)Nc1ccc(C(=O)NCC(=O)OCc2ccccc2)cc1)C(C)C)C(=O)C(F)(F)F` (mixture of isomers) [Example 22, 3(RS)-[[4-(Benzyloxycarbonylmethylaminocarbonyl)phenylaminocarbonyl]-L-valyl-L-prolyl]amino-1,1,1-trifluoro-2-oxo-4-methylpentane], the figures for the IC50 in assay [1] and in assay [2] (setting [4]) were 680 nM and 4900 nM, respectively.

Take `CC(C)C(NC(=O)[C@@H]1CCCN1C(=O)[C@@H](NC(=O)Nc1ccc(C(=O)NCC(=O)N(C)C)cc1)C(C)C)C(=O)C(F)(F)F` (mixture of isomers) [Example 24, 3(RS)-[[4-(Dimethylaminocarbonylmethylaminocarbonyl)phenylaminocarbonyl]-L-valyl-L-prolyl]amino-1,1,1-trifluoro-2-oxo-4-methylpentane]: the figures for the IC50 in assay [1] and in assay [2] (setting [4]) were 1400 nM and 3800 nM, respectively.

Take `CC(C)C(NC(=O)[C@@H]1CCCN1C(=O)[C@@H](NC(=O)c1ccc(C(=O)NCCCC(=O)OCC(=O)c2ccccc2)cc1)C(C)C)C(=O)C(F)(F)F` (mixture of isomers) [Example 3, 3(RS)-[[4-[(3-Benzoylmethoxycarbonyl)propylaminocarbonyl]phenylcarbonyl]-L-valyl-L-prolyl]amino-1,1,1-trifluoro-4-methyl-2-oxopentane]: the half-maximal inhibitory concentration (IC50) in assay [1] is 980 nM; in assay [2] (setting [4]) it was 8700 nM.

Regarding `CC(C)C(NC(=O)[C@@H]1CCCN1C(=O)[C@@H](NC(=O)c1ccc(C(=O)NN2CCOCC2)cc1)C(C)C)C(=O)C(F)(F)F` (mixture of isomers) [Example 4, 3(RS)-[[4-[(4-Morpholino)aminocarbonyl]-phenylcarbonyl]-L-valyl-L-prolyl]amino-1,1,1-trifluoro-4-methyl-2-oxopentane], the IC50 stood at 1400 nM in assay [1] and 2900 nM in assay [2] (setting [4]).

For the compound `CC(C)C(NC(=O)[C@@H]1CCCN1C(=O)[C@@H](NC(=O)c1ccc(C(=O)N[C@H](Cc2ccccc2)C(=O)OCc2ccccc2)cc1)C(C)C)C(=O)C(F)(F)F` (mixture of isomers) [Example 8, 3(RS)-[[4-[[(1(R)-Benzyloxycarbonyl)-2-phenyl]ethylaminocarbonyl]phenylcarbonyl]-L-valyl-L-prolyl]amino-1,1,1-trifluro-4-methyl-2-oxopentane], the values for the half-inhibitory concentration (IC50) in assay [1] and in assay [2] (setting [4]) were 870 nM and 16000 nM, respectively.

For the compound `CC(C)C(NC(=O)[C@@H]1CCCN1C(=O)[C@@H](NC(=O)c1ccc(C(=O)N[C@@H](Cc2ccccc2)C(=O)OCc2ccccc2)cc1)C(C)C)C(=O)C(F)(F)F` (mixture of isomers) [Example 9, 3(RS)-[[4-[[(1(S)-Benzyloxycarbonyl)-2-phenyl]ethylaminocarbonyl]phenylcarbonyl]-L-valyl-L-prolyl]amino-1,1,1-trifluoro-4-methyl-2-oxopentane], the half-maximal inhibitory concentration (IC50) in assay [1] turned out to be 870 nM; in assay [2] (setting [4]) it was 9500 nM.

In the case of `CC(C)C(NC(=O)[C@@H]1CCCN1C(=O)[C@@H](NC(=O)c1ccc(C(=O)NCC(=O)O)cc1)C(C)C)C(=O)C(F)(F)F` (single isomer, unassigned) [Example 15, 3(R or S)-[[4-(Carboxymethylaminocarbonyl)phenylcarbonyl]-L-valyl-L-prolyl]amino-1,1,1-trifluoro-2-oxo-4-methylpentane], the 50% inhibitory concentration (IC50) stood at 610 nM in assay [1] and 2000 nM in assay [2] (IC50 Porcine pancreas elastase).

For the compound `CC(C)C(NC(=O)[C@@H]1CCCN1C(=O)[C@@H](NC(=O)c1ccc(C(=O)NCC(=O)O)cc1)C(C)C)C(=O)C(F)(F)F` (single isomer, unassigned) [Example 16, 3(R or S)-[[4-(Carboxymethylaminocarbonyl)phenylcarbonyl]-L-valyl-L-prolyl]amino-1,1,1-trifluoro-2-oxo-4-methylpentane], the 50% inhibitory concentration (IC50) is 7100 nM in assay [1] and 30000 nM in assay [2] (IC50 Porcine pancreas elastase).
